Experimental data from US20250388597A1, “BIFUNCTIONAL PHOTOCROSSLINKING PROBES FOR COVALENT CAPTURE OF PROTEIN-NUCLEIC ACID COMPLEXES IN CELLS” (UNIVERSITY OF SOUTHERN CALIFORNIA, priority 2022, published 2025).

Tested on: Hela cells
Assay: Cell and nuclear permeability by click labelling with Alexa Fluor 647 picolyl azide, fluorescence imaging
Type: cell-based
Settings: for dependence of immobilized fluorescent signal on probe concentration: 10 μM vs 100 μM under UV illumination, FIG. 14B; for immobilization of Alexa Fluor 647 picolyl azide in cells (cell and nuclear permeability): probe 10 μM or 100 μM, 30 min, UV 365 nm 5 min
Description: FIG. 11A-FIG. 11F depicts permeability and subcellular distribution of the BFPX probe SPB-AAD in Hela cell. Top panel (FIG. 11A-FIG. 11C): buffer control experiments without adding SPB-AAD, (FIG. 11A) bright field; (FIG. 11B) fluorescence imaging of Alexa Fluor; (FIG. 11C) DAPI stain of the nuclei; Bottom panel: treatment with […], (FIG. 11D) bright field; (FIG. 11E) fluorescence imaging of Alexa Fluor; (FIG. 11F) DAPI stain of the nuclei.
FIG. 14A depicts characterization and testing of BFPX crosslinking inside cells. Hela cells were incubated with SPB-AAD or SPB-PEG4-AAD (10 μM or 100 μM) in the dark for 30 min to allow the DNA binding and intercalation by the psoralen moiety of the BFPX probes. After washing off the excessive BFPX probe, illuminate UV 365 nm for 5 min. An Alexa Fluor 647 picolyl azide molecule (from Click-iT™ Plus Alexa Fluor™ 647 Picolyl Azide Toolkit) was used to react with the alkyne group on SPB-AAD or SPB-PEG4-AAD via click reaction. After the click chemistry labeling, the unreacted fluorescent molecules were removed by washing. The nuclei were analyzed using fluorescence imaging. When no BFPX probes were added (columns 1 and 2) or adding probes without UV treatment (columns 3 and 6), little or no fluorescence signal was retained in the cells.
We next tested the cell and nuclear permeability of the BFPX probes using azide-containing fluorescent molecules through click reaction with the terminal alkyne in SPB-AAD and SPB-PEG4-AAD. Briefly, Hela cells were incubated with SPB-AAD or SPB-PEG4-AAD (10 μM or 100 μM) in the dark for 30 min to allow the DNA binding and intercalation by the psoralen moiety of the BFPX probes. After washing off the excess BFPX probes followed by illumination of UV 365 nm for 5 min, Alexa Fluor 647 picolyl azide was coupled to the alkyne group on SPB-AAD or SPB-PEG4-AAD via click reaction. After the click chemistry labeling, the unreacted fluorescent molecules were removed by washing. The nuclei were then be analyzed using fluorescence imaging (FIG. 14A). When no BFPX probes were added (columns 1 and 2) or adding probes without UV treatment (columns 3 and 6), little or no fluorescence signal was retained in the cells.
We also analyzed (i) cell permeability and subcellular distribution of the BFPX probes. We validated the cell and nuclear permeability of the BFPX probes and monitored their sub-cellular distribution using azide-containing fluorescent label through click reaction with the alkyne group (as in SPB-AAD and SPB-PEG3-AAD). Briefly, Hela cells were incubated with SPB-AAD (25 μM) in the dark for 30 min to allow the DNA binding and intercalation by the psoralen moiety of the BFPX probe. […] The nuclei were then analyzed using fluorescence imaging (FIG. 11). […]

SMILES	dependence of immobilized fluorescent signal on probe concentration	immobilization of Alexa Fluor 647 picolyl azide in cells (cell and nuclear permeability)
C#CCCC1(CCNC(=O)CCCOc2c3occc3cc3ccc(=O)oc23)N=N1 [SPB-AAD, N-(2-(3-(but-3-yn-1-yl)-3H-diazirin-3-yl)ethyl)-4-((7-oxo-7H-furo[3,2-g]chromen-9-yl)oxy)butanamide]	dosage dependent	could be immobilized in the cells via click reaction
C#CCCC1(CCNC(=O)CCOCCOCCOCCOCCNC(=O)CCCOc2c3occc3cc3ccc(=O)oc23)N=N1 [SPB-PEG4-AAD, N-(2-(3-(but-3-yn-1-yl)-3H-diazirin-3-yl)ethyl)-1-(4-((7-oxo-7H-furo[3,2-g]chromen-9-yl)oxy)butanamido)-3,6,9,12-tetraoxapentadecan-15-amide]	dosage dependent	could be immobilized in the cells via click reaction
